From ChEMBL document CHEMBL3259757, “B-ring modified aurones as promising allosteric inhibitors of hepatitis C virus RNA-dependent RNA polymerase” (Eur J Med Chem, 2014)

Columns and labels:
[1] = Inhibition of HCV J4 genotype 1b NS5Bdelta21 polymerase using homopolymeric RNA by SYBR Green assay; design: species or system Hepatitis C virus subtype 1b
[2] = system: Hepatitis C virus subtype 1b; assay: Inhibition of HCV J4 genotype 1b NS5Bdelta21 polymerase using homopolymeric RNA at 20 uM by SYBR Green assay

Structure (SMILES)	IC50 [1] [µM]	inhibition [2] [%]
CCCCn1cc(/C=C2\Oc3cc(O)cc(O)c3C2=O)c2cccc(O)c21	2.3	98.9
O=C1/C(=C/c2ccc(N3CCCCC3)cc2)Oc2cc(O)cc(O)c21	5.5	93
CCCCn1cc(/C=C2\Oc3cc(O)cc(O)c3C2=O)c2cc(C)ccc21	–	96
O=C1/C(=C/c2ccc3ccccc3n2)Oc2cc(O)cc(O)c21	–	42
O=C1/C(=C/c2ccc3ccccc3c2)Oc2cc(O)cc(O)c21	3.4	95
O=C1/C(=C/c2ccc3[nH]cnc3c2)Oc2cc(O)cc(O)c21	10	81
O=C1/C(=C/c2ccc(C(F)(F)F)cc2)Oc2cc(O)cc(O)c21	5.4	96
CCCCOc1ccc(/C=C2\Oc3cc(O)cc(O)c3C2=O)cc1	–	81
O=C1/C(=C/c2ccco2)Oc2cc(O)cc(O)c21	> 16	27
O=C1/C(=C/c2ccc(-c3ccccc3)cc2)Oc2cc(O)cc(O)c21	4	93
CCCCn1cc(/C=C2\Oc3cc(O)cc(O)c3C2=O)c2cccc(C)c21	–	92.5
O=C1/C(=C/c2ccc(CO)o2)Oc2cc(O)cc(O)c21	> 16	33
O=C1/C(=C/c2ccc(-c3cccs3)cc2)Oc2cc(O)cc(O)c21	4	97
Cn1cccc1/C=C1\Oc2cc(O)cc(O)c2C1=O	> 16	55
CN(C)c1ccc(/C=C2\Oc3cc(O)cc(O)c3C2=O)cc1	5	90
CCCCn1cc(/C=C2\Oc3cc(O)cc(O)c3C2=O)c2cccc(OC)c21	–	93.1
CCCCn1cc(/C=C2\Oc3cc(O)cc(O)c3C2=O)c2cc(OC)ccc21	–	93.8
CCCCOc1ccc(/C=C2\Oc3cc(O)cc(O)c3C2=O)c(OCCCC)c1	4	90
CCCCn1ccc2cc(/C=C3\Oc4cc(O)cc(O)c4C3=O)ccc21	–	94.3
CCCCn1c(C)c(/C=C2\Oc3cc(O)cc(O)c3C2=O)c2ccccc21	–	91.6
CCCCn1c(/C=C2\Oc3cc(O)cc(O)c3C2=O)cc2ccccc21	3	98.4
O=C1/C(=C/c2cnc[nH]2)Oc2cc(O)cc(O)c21	> 16	39

Next, values leading:

IC50 [1] [µM]	inhibition [2] [%]	Structure (SMILES)
6	90	Cn1cc(/C=C2\Oc3cc(O)cc(O)c3C2=O)c2ccccc21
2.7	93	O=C1/C(=C/c2cn(CCCc3ccccc3)c3ccccc23)Oc2cc(O)cc(O)c21
2.4	96	O=C1/C(=C/c2cn(Cc3cccc(Br)c3)c3ccccc23)Oc2cc(O)cc(O)c21
3	94.7	CC(C)=CCn1cc(/C=C2\Oc3cc(O)cc(O)c3C2=O)c2ccccc21
2.6	96.2	O=C1/C(=C/c2cn(Cc3ccccc3)c3ccccc23)Oc2cc(O)cc(O)c21
3.1	97.8	Cn1c(/C=C2\Oc3cc(O)cc(O)c3C2=O)cc2ccccc21
2.7	95.4	COc1cccc(Cn2cc(/C=C3\Oc4cc(O)cc(O)c4C3=O)c3ccccc32)c1
3.2	93.9	O=C1/C(=C/c2cn(CCc3ccccc3)c3ccccc23)Oc2cc(O)cc(O)c21
–	45	O=C1/C(=C/c2cccc3ccccc23)Oc2cc(O)cc(O)c21
–	53.5	CCCCn1cc(/C=C2\Oc3cc(O)cc(O)c3C2=O)c2cc(O)ccc21
3.3	93	O=C1/C(=C/c2cn(CC3CCCCC3)c3ccccc23)Oc2cc(O)cc(O)c21
2.6	95.6	Cc1cccc(Cn2cc(/C=C3\Oc4cc(O)cc(O)c4C3=O)c3ccccc32)c1
–	70	O=C(O)CCCn1cc(/C=C2\Oc3cc(O)cc(O)c3C2=O)c2ccccc21
8	80.7	CC(C)Cn1cc(/C=C2\Oc3cc(O)cc(O)c3C2=O)c2ccccc21
2.4	99.3	O=C1/C(=C/c2cn(Cc3cccc(O)c3)c3ccccc23)Oc2cc(O)cc(O)c21
